# Experimental data published in patent US20250161245A1, “A MIXTURE OF UREA, BIURET AND N-CONTAINING BY-PRODUCTS CREATED DURING BIURET PRODUCTION AS A DIETARY NON-PROTEIN NITROGEN-SOURCE FOR RUMINANTS AND USES THEREOF” (Yara International ASA, priority 2022, published 2025).
# Tests used:
# ruminal fluid = assay: in vitro dry and organic matter digestibility, batch culture (Example 4); type: cell-based, Angus crossbred steers; settings: 24 hours of incubation, corn silage-based diet
# Procedure: (§1) The in vitro incubations were conducted on three separate days (replicates). A representative sample of digesta was collected from different places in the rumen of ruminally cannulated steers and strained through 4 layers of cheesecloth, placed in pre-warmed thermos containers, and transported to the laboratory within 30 minutes after the collection. In the laboratory, the ruminal fluid from the two steers was maintained under constant CO2-flux and was combined in equal proportions. This combined ruminal fluid was mixed with McDougall's buffer (McDougall, 1948) with and without 0.077 g/liter of 10 wt. % ammonium sulfate enriched with ^15N in relation 1:4, and it was used as an inoculum. Two bottles of 500 ml fitted with a side arm and a rubber septum were incubated per treatment. […] At the end of the 24 hours incubation, the final pH was recorded, the bottles were placed on ice to prevent further microbial fermentation and two 10-ml samples were collected and acidified by adding 20 μl of a 20 vol/vol % of H2SO4-solution and were frozen at minus 20° C. until further analysis. […]
# The concentration of ammonia-N at 12 and 24 hours in the incubation fluid was measured after centrifuging at 10,000×g for 15 minutes at 4° C. using an Avanti J-E centrifuge from Beckman Coulter® Incorporated. […]
# rumen microbes = assay: microbial protein synthesis, 15N batch culture (Example 4); type: cell-based, Angus crossbred steers; settings: 24 hours of incubation
# Procedure: as §1
# The total nitrogen (N) and the isotopic supplement were measured in the whole content and the bacterial pellet by an isotopic ratio mass spectrometry using a Vario Micro cube from Elementar Analyzer System GmbH. […]
smiles,measurement,setting,value
"NC(N)=O [Urea, urea]",IVDMD,ruminal fluid,45.08%
same,IVOMD,ruminal fluid,65.38%
same,Bacteria N,rumen microbes,67.34 mg
same,EMPS,rumen microbes,34.46 g of bacteria N/kg of OM truly digested
